Consider one compound from PMC6637479, “Identification of undecylenic acid as EAG channel inhibitor using surface plasmon resonance-based screen of KCNH channels” (BMC Pharmacology & Toxicology, 2019).

For this assay, the target named is T1, mEAG1 (Mus musculus, UniProt Q60603).
T1 construct: gene Kcnh1; PAS domain, residues 7–136 (N-terminal 6-His)
T1 sequence (Q60603 7-136): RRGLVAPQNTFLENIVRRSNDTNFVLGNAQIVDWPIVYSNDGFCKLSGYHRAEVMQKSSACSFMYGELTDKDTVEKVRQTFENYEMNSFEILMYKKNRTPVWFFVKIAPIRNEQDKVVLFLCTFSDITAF
As to the kind of experiment: SPR steady-state dose response (Biacore […]); also inhibits full-length mEAG1 currents in inside-out patches, IC50 […]. The format is binding. A general note: Surface plasmon resonance follows binding to a sensor surface in real time, without labels.

The Kd is the concentration at which binding is half-saturated. Take `C=CCCCCCCCCC(=O)O` [undecylenic acid]: the Kd was about 11 µM.
